Test results as given in ChEMBL document CHEMBL1158467, “In vitro intrinsic clearance-based optimization of N3-phenylpyrazinones as corticotropin-releasing factor-1 (CRF1) receptor antagonists” (J Med Chem, 2009).

Legend:
[1] = Fraction unbound in Sprague-Dawley rat plasma at 10 mg/kg, po after 3 hrs by equilibrium dialysis; type: ADME, organism-based; design: dose 10 mg/kg, route oral
Rattus norvegicus [2] = assay: Plasma free concentration in Sprague-Dawley rat at 3 mg/kg, po; type: ADME, organism-based; design: dose 3 mg/kg, route oral; settings: in vivo
Rattus norvegicus [3] = assay: Ex vivo receptor occupancy of CRF1 receptor in Sprague-Dawley rat brain at 10 mg/kg, po after 20 mins by autoradiography relative to [125I-tyrosine]sauvagine; type: functional
[4] = Cmax in Sprague-Dawley rat at 10 mg/kg, po dosed as aqueous suspension of 1% polysorbate 80 in 0.5% methylcellulose within 0.25 to 24 hrs; type: ADME, organism-based; design: dose 10 mg/kg, route oral; settings: in vivo
[5] = Aqueous solubility at pH 1; type: physicochemical
[6] = AUC in Sprague-Dawley rat at 10 mg/kg, po dosed as aqueous suspension of 1% polysorbate 80 in 0.5% methylcellulose within 0.25 to 24 hrs; type: ADME, organism-based; design: time 0.25-24 hr, dose 10 mg/kg, route oral; settings: in vivo
Rattus norvegicus [7] = assay: Anxiolytic activity in Sprague-Dawley rat at 10 mg/kg, po assessed as decrease in exit latency after 60 mins by defensive withdrawal test relative to control; type: functional; design: scale not given: the % may be the effect or the level left
Rattus norvegicus [8] = assay: Ex vivo receptor occupancy of CRF1 receptor in po dosed Sprague-Dawley rat brain after 20 mins by autoradiography; type: functional, organism-based
Rattus norvegicus [9] = assay: Cmax in Sprague-Dawley rat at 10 mg/kg, po dosed as aqueous solution of oleoyl macrogolglyceride/DMAC/polysorbate 80, 85:10:5 within 0.25 to 24 hrs; type: ADME, organism-based; design: dose 10 mg/kg, route oral; settings: in vivo
Rattus norvegicus [10] = assay: Total plasma concentration in Sprague-Dawley rat at 3 mg/kg, po; type: ADME, organism-based; design: dose 3 mg/kg, route oral; settings: in vivo
Rattus norvegicus [11] = assay: Ex vivo receptor occupancy of CRF1 receptor in Sprague-Dawley rat brain at 3 mg/kg, po after 20 mins by autoradiography relative to [125I-tyrosine]sauvagine; type: functional
[12] = Oral bioavailability in Sprague-Dawley rat at 10 mg/kg dosed as aqueous suspension of 1% polysorbate 80 in 0.5% methylcellulose within 0.25 to 24 hrs; type: ADME, organism-based; settings: in vivo
[13] = Aqueous solubility at pH 6.5; type: physicochemical
[14] = AUC in Sprague-Dawley rat at 10 mg/kg, po dosed as aqueous solution of oleoyl macrogolglyceride/DMAC/polysorbate 80, 85:10:5 within 0.25 to 24 hrs; type: ADME, organism-based; design: time 0.25-24 hr, dose 10 mg/kg, route oral; settings: plasma
Rattus norvegicus [15] = assay: Plasma free concentration in Sprague-Dawley rat at 10 mg/kg, po; type: ADME, organism-based; design: dose 10 mg/kg, route oral; settings: in vivo
[16] = molecular target: Corticotropin releasing hormone receptor 2 (Sus scrofa, UniProt B8Q4Z9); assay: Displacement of [125I]sauvagine from CRF2 receptor in pig choroid plexus by rapid filtration technique; type: tissue-based
[17] = molecular target: T1, Corticotropin-releasing factor receptor 1 (Homo sapiens, UniProt P34998); assay: Antagonist activity at CRF1 receptor in human Y-79 cells assessed as inhibition of CRF-induced cAMP production after 30 mins by HTRF analysis
T1 sequence (P34998 whole entry): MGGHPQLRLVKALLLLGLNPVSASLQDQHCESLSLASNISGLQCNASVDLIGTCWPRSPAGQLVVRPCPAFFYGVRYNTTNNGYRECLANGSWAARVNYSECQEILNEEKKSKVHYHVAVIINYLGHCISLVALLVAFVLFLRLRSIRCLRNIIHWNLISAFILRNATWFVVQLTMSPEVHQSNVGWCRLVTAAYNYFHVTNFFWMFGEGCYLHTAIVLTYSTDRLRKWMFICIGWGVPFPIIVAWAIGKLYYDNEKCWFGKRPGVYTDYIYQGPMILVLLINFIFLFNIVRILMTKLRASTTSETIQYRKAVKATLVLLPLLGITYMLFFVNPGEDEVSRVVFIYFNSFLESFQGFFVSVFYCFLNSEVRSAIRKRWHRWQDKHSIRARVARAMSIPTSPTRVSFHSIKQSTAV

Rattus norvegicus [18] = assay: Ex vivo receptor occupancy of CRF1 receptor in Sprague-Dawley rat brain at 1 mg/kg, po after 20 mins by autoradiography relative to [125I-tyrosine]sauvagine; type: functional
Rattus norvegicus [19] = assay: Plasma free concentration in Sprague-Dawley rat at 1 mg/kg, po; type: ADME, organism-based; design: dose 1 mg/kg, route oral; settings: in vivo
[20] = molecular target: T2, Corticotropin-releasing factor receptor 1 (Rattus norvegicus, UniProt P35353); assay: Displacement of [125I]ovine-CRF from CRF1 receptor in rat frontal cortex by rapid filtration technique; type: tissue-based
T2 sequence (P35353 whole entry): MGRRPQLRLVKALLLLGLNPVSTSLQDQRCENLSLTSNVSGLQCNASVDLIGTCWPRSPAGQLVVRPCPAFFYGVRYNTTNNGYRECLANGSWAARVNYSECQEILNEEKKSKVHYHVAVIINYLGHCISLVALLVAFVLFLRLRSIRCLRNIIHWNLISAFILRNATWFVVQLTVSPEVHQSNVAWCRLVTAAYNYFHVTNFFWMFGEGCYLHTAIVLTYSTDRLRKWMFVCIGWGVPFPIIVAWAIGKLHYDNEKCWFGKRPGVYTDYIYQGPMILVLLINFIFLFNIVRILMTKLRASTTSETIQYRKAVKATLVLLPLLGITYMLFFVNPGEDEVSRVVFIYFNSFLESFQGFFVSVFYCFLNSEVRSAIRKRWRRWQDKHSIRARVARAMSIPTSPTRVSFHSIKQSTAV

[21] = Half life in Sprague-Dawley rat 2 mg/kg, iv within 0.17 to 24 hrs; type: ADME, organism-based; design: dose 2 mg/kg, route intravenous; settings: in vivo
Rattus norvegicus [22] = assay: Anxiolytic activity in Sprague-Dawley rat at 1 mg/kg, po assessed as decrease in exit latency after 60 mins by defensive withdrawal test relative to control; type: functional; design: scale not given: the % may be the effect or the level left
Rattus norvegicus [23] = assay: Total plasma concentration in Sprague-Dawley rat at 1 mg/kg, po; type: ADME, organism-based; design: dose 1 mg/kg, route oral; settings: in vivo
Rattus norvegicus [24] = assay: Total plasma concentration in Sprague-Dawley rat at 10 mg/kg, po; type: ADME, organism-based; design: dose 10 mg/kg, route oral; settings: in vivo
[25] = Volume of distribution at steady state in Sprague-Dawley rat 2 mg/kg, iv within 0.17 to 24 hrs; type: ADME, organism-based; design: dose 2 mg/kg, route intravenous; settings: in vivo, read-out: Vdss
Rattus norvegicus [26] = assay: Anxiolytic activity in Sprague-Dawley rat at 3 mg/kg, po assessed as decrease in exit latency after 60 mins by defensive withdrawal test relative to control; type: functional; design: scale not given: the % may be the effect or the level left
Rattus norvegicus [27] = assay: Oral bioavailability in Sprague-Dawley rat at 10 mg/kg dosed as aqueous solution of oleoyl macrogolglyceride/DMAC/polysorbate 80, 85:10:5 within 0.25 to 24 hrs; type: ADME, organism-based; settings: in vivo
[28] = Intrinsic clearance in human liver microsomes at 1 uM; type: ADME, Microsome
[29] = Clearance in Sprague-Dawley rat 2 mg/kg, iv within 0.17 to 24 hrs; type: ADME, organism-based; design: dose 2 mg/kg, route intravenous; settings: in vivo

Corticotropin releasing hormone receptor 2, sequence (B8Q4Z9 whole entry): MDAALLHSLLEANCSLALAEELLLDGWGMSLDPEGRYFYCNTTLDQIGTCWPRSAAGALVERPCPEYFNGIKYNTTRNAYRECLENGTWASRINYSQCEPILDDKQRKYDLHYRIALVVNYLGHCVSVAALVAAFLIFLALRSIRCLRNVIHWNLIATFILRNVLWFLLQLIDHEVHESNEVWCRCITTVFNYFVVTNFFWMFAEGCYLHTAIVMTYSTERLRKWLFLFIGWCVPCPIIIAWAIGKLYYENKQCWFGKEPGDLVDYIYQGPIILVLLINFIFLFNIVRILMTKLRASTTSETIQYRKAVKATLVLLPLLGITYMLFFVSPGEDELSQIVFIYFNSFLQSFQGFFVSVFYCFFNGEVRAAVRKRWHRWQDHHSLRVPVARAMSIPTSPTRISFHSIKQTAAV

- fraction unbound at 3 h [1]: 0.0077
- Cp(f) (Rattus norvegicus [2]): 2.1 nM
- Cmax [4]: 100 nM
- solubility [5]: < 1 µg/mL
- AUC [6]: 1.3 µM·h
- Activity (Rattus norvegicus [8]): Dose-dependent effect
- Cmax (Rattus norvegicus [9]): 1700 nM
- concentration (Rattus norvegicus [10]): 270 nM
- bioavailability [12]: 5%
- solubility [13]: < 1 µg/mL
- AUC [14]: 12 µM·h
- Cp(f) (Rattus norvegicus [15]): 6.1 nM
- IC50 [16]: > 10000 nM
- IC50 [17]: 4.9 nM
- Cp(f) (Rattus norvegicus [19]): 0.62 nM
- IC50 [20]: 1 nM
- half-life [21]: 7.8 h
- concentration (Rattus norvegicus [23]): 80 nM
- concentration (Rattus norvegicus [24]): 790 nM
- Vd [25]: 4.7 L/kg
- F (Rattus norvegicus [27]): 52%
- CLint scaled at 1 µM [28]: 62 mL/min/kg
- clearance [29]: 17 mL/min/kg
SMILES: C[C@@H](C1CC1)n1cc(Cl)nc(Nc2c(Cl)cc(OC(F)F)cc2Cl)c1=O
- Activity (Rattus norvegicus [3]): 83%
- Activity (Rattus norvegicus [7]): 61%
- Activity (Rattus norvegicus [11]): 73%
- Activity (Rattus norvegicus [18]): 43%
- Activity (Rattus norvegicus [22]): 8%
- Activity (Rattus norvegicus [26]): 46%
